# Assay results: patent publication US20230017266A1, “Cyclooxygenase-2 Inhibition for the Treatment of SAA-high Asthma” (THE USA, AS REPRESENTED BY THE SECRETARY, DEPT. OF HEALTH …, priority 2019, published 2023)
# Tested on: NF-κB p65
# Assay: Phosphorylation of NF-κB p65 serine 529 in monocytes stimulated with HDL+SAA1 (flow cytometry)
# Assay type: cell-based, human
# Settings: A438079 10 μM for 2 h, then HDL+SAA1 15 min; CD45+/CD14+/CD16− monocytes
# Protocol: Phosphorylation of NF-κB p65. PBMCs isolated using Lymphoprep™ were resuspended in X-VIVO™ 15 serum-free hematopoietic cell medium (Lonza, Walkersville, Md.) and treated with the P2X7R antagonist, A438079 (10 ∝M), for 2 h prior to stimulation with HDL+SAA1 for 15 min^53. Subsequent cell processing was performed at 4° C. or on ice. Cells were washed with cold PBS, centrifuged at 300×g for 5 min, and reacted in a volume of 100 ∝l PBS for 15 min with the following antibodies; APC-Cy™7 mouse anti-human CD45 clone 2D1 (catalog #557833), FITC mouse anti-human CD14 clone M5E2 (catalog #555397), APC mouse anti-human CD16 clone B73.1 (catalog #561304), all form BD Biosciences (San Jose, Calif.) and cell viability dye (L34959, ThermoFisher Scientific, Frederick, Md.). […] Cells were washed with Phosflow Perm Buffer III and PBS, resuspended in PBS, and analyzed using a Fortessa analyzer equipped with 355, 407, 488, 532 and 640 nm LASER lines using FACS DIVA 8.0 software (BD Biosciences, San Jose, Calif.). […] Mean fluorescence intensity (MFI) was calculated and overlay histogram plots were generated to quantify phosphorylation of NF-κB p65 serine 529 among various treatment conditions.
structure (smiles),measurement,value
Clc1cccc(-c2nnnn2Cc2cccnc2)c1Cl [A438079],HDL+SAA1-mediated phosphorylation of p65 NF-κB,attenuated
